Results taken from patent publication US20250333404A1, “DEUTERATED COMPOUNDS” (Neurocrine Biosciences, Inc., priority 2022, published 2025).

Target: NaV1.6 (Homo sapiens (Human), UniProt Q9UQD0)
Assay: Sodium influx assay (ANG2 dye), NaV1.6
Format: cell-based
Settings: Trex HEK293 cells, human α-subunit + β1-subunit; inactivated state; read-out: Flux NaV1.6 IC50

NaV1.6, sequence (Q9UQD0 whole entry): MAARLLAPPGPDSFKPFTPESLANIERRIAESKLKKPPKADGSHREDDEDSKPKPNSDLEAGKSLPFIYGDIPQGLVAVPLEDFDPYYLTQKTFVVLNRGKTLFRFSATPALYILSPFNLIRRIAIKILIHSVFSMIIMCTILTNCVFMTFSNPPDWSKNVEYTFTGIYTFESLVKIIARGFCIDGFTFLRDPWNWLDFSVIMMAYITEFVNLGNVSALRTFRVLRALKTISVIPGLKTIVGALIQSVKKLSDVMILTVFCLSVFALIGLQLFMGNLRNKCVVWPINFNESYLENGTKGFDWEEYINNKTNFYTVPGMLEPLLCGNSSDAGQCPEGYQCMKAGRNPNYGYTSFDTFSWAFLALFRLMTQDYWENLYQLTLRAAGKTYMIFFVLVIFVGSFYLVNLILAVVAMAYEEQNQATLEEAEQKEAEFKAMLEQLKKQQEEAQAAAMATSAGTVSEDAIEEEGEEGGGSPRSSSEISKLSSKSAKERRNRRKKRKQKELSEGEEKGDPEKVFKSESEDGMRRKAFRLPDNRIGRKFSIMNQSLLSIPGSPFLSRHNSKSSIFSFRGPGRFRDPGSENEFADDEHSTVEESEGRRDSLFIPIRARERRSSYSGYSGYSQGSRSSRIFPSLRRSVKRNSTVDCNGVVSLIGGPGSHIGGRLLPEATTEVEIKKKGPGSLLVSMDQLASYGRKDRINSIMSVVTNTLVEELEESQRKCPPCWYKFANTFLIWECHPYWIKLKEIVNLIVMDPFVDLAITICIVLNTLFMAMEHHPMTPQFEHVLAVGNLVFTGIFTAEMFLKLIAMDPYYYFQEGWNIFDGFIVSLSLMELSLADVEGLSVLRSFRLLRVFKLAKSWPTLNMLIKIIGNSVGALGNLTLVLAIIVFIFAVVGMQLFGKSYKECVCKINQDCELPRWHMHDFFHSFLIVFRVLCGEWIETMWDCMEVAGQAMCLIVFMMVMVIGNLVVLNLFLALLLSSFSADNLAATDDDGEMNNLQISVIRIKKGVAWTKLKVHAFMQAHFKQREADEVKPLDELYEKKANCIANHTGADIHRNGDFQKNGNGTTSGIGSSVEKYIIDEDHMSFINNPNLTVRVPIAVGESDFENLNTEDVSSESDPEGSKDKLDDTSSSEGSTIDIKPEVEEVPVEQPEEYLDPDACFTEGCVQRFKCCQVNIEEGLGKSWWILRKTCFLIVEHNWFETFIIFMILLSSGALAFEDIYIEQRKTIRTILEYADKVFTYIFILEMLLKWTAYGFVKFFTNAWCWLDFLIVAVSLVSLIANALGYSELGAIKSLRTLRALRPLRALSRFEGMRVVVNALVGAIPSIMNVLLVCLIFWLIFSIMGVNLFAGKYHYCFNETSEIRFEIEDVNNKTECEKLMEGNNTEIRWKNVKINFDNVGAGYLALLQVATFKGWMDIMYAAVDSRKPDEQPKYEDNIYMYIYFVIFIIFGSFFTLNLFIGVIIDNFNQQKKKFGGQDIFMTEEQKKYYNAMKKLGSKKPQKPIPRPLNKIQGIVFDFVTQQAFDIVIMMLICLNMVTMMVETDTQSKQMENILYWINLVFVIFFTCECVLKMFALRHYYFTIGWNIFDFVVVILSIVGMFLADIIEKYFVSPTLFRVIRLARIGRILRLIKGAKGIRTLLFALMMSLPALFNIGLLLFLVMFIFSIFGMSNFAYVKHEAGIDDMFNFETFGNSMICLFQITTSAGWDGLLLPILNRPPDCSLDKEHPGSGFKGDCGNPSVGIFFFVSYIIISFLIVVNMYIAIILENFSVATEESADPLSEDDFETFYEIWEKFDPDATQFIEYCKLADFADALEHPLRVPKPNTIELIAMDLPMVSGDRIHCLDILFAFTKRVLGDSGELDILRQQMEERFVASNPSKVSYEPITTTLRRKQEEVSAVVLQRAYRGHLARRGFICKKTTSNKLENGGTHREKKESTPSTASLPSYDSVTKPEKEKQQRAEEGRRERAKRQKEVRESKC
NaV1.6, sequence (Q07699 19-218 partner): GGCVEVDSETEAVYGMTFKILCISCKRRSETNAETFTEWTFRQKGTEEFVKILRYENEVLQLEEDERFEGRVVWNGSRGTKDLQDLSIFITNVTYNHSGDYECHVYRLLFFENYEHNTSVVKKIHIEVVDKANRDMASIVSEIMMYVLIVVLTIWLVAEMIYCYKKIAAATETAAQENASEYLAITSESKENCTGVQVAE

IC50: 272 nM
SMILES: Cc1cc(S(=O)(=O)Nc2cscn2)c(F)cc1N(C)[C@H]1CCN(Cc2ccccc2)C1 [Compound 1, (S)-4-((1-benzylpyrrolidin-3-yl)(methyl)amino)-2-fluoro-5-methyl-N-(thiazol-4-yl)benzenesulfonamide]
